Our source for the T/C values is PubChem BioAssay AID248 (DTP/NCI, 2004).

SMILES strings stand for the structures. Several values for one entry are separate records, joined by “and”; a condition that tells them apart may be missing. Equal values may be shown once. Toxic doses and inconclusive results are not listed.

The experiment deals with L1210 leukemia ip in BDF1 mice, survival T/C. Briefly: NCI In Vivo Anticancer Drug Screen. Data for tumor model L1210 Leukemia (intraperitoneal) in B6D2F1 (BDF1) mice. The settings on record: endpoint: mean survival time, higher = longer survival. The essentials: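 Tumor cells were implanted, animals were treated, and survival was followed. The result divides the treated measurement by the vehicle-control measurement.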

The mark [1] stands for this setting: dose: 12.5 mg/kg/injection, schedule: Q04DX003 (ip), vehicle: saline.
Setting [2] is: dose: 25.0 mg/kg/injection, schedule: Q04DX003 (ip), vehicle: saline.
The mark [3] stands for this setting: dose: 50.0 mg/kg/injection, schedule: Q01DX009 (ip), vehicle: Klucel (hydroxypropylcellulose) (HPC).
Setting [4] is: dose: 50.0 mg/kg/injection, schedule: Q01DX001 (ip), vehicle: saline.
The mark [5] stands for this setting: dose: 200.0 mg/kg/injection, schedule: Q01DX001 (ip), vehicle: saline.
[6] abbreviates: dose: 50.0 mg/kg/injection, schedule: Q04DX003 (ip), vehicle: saline.
Where [7] appears, read: dose: 100.0 mg/kg/injection, schedule: Q04DX003 (ip), vehicle: saline.

Consider `Cc1ccc(C(=O)C=C(C(F)(F)F)C(F)(F)F)cc1`, for which the T/C was 94 % of control (dose: 6.25 mg/kg/injection, schedule: Q04DX003 (ip), vehicle: saline); 96 % of control under setting [1]; 103 % of control under setting [2].
For the compound `C(=N/N=C/c1cccnc1)/c1cccnc1`, the T/C was 104 % of control (dose: 100.0 mg/kg/injection, schedule: Q01DX001 (ip), vehicle: other); 110 % of control (dose: 200.0 mg/kg/injection, schedule: Q01DX001 (ip), vehicle: other); 110 % of control (dose: 400.0 mg/kg/injection, schedule: Q01DX001 (ip), vehicle: other).
On to `NNC(=O)c1n[nH]c(C2OC(CO)C(O)C2O)c1N` (stereo not given), for which the T/C (dose: 100.0 mg/kg/injection, schedule: Q01DX005 (ip), vehicle: saline) was 100 % of control and the T/C (dose: 200.0 mg/kg/injection, schedule: Q01DX005 (ip), vehicle: saline) was 94 % of control.
`CC1(C)CCC(CC(=O)O)(CC(=O)O)CC1`: the T/C was 95 % of control (dose: 100.0 mg/kg/injection, schedule: Q04DX003 (ip), vehicle: saline with Tween-80) and 92 % of control (dose: 400.0 mg/kg/injection, schedule: Q04DX003 (ip), vehicle: saline with Tween-80).
For `CC(Oc1cc(Cl)c(Cl)cc1Cl)C(=O)OCCCc1ccccn1` (stereo not given), the T/C is, setting by setting: under setting [3], 106 % of control; (dose: 100.0 mg/kg/injection, schedule: Q01DX009 (ip), vehicle: Klucel (hydroxypropylcellulose) (HPC)) 100 % of control and 111 % of control; (dose: 100.0 mg/kg/injection, schedule: Q04DX002 (ip), vehicle: Klucel (hydroxypropylcellulose) (HPC)) 103 % of control; (dose: 200.0 mg/kg/injection, schedule: Q01DX009 (ip), vehicle: Klucel (hydroxypropylcellulose) (HPC)) 114 % of control; (dose: 200.0 mg/kg/injection, schedule: Q04DX002 (ip), vehicle: Klucel (hydroxypropylcellulose) (HPC)) 107 % of control; (dose: 400.0 mg/kg/injection, schedule: Q04DX002 (ip), vehicle: Klucel (hydroxypropylcellulose) (HPC)) 90 % of control.
As to `Cc1ccc(N)cc1[N+](=O)[O-]`, the T/C reads like this: (dose: 100.0 mg/kg/injection, schedule: Q01DX001 (ip), vehicle: Klucel (hydroxypropylcellulose) (HPC)) 105 % of control; (dose: 200.0 mg/kg/injection, schedule: Q01DX001 (ip), vehicle: Klucel (hydroxypropylcellulose) (HPC)) 95 % of control; (dose: 400.0 mg/kg/injection, schedule: Q01DX001 (ip), vehicle: Klucel (hydroxypropylcellulose) (HPC)) 95 % of control.
Regarding `CCOC(=S)c1ccc(S(=O)(=O)Nc2ccccc2)cc1`, the T/C by setting is: (dose: 100.0 mg/kg/injection, schedule: Q01DX001 (ip), vehicle: saline with Tween-80) 100 % of control; (dose: 200.0 mg/kg/injection, schedule: Q01DX001 (ip), vehicle: saline with Tween-80) 97 % of control; (dose: 400.0 mg/kg/injection, schedule: Q01DX001 (ip), vehicle: saline with Tween-80) 95 % of control.
In the case of `CN(C)CCCN1c2ccccc2Sc2cc(C=[N+](C)C)ccc21`, the T/C is 103 % of control (dose: 100.0 mg/kg/injection, schedule: Q04DX003 (sc), vehicle: olive oil, sesame oil, peanut oil); 98 % of control (dose: 200.0 mg/kg/injection, schedule: Q04DX003 (sc), vehicle: olive oil, sesame oil, peanut oil); 108 % of control (dose: 400.0 mg/kg/injection, schedule: Q04DX003 (sc), vehicle: olive oil, sesame oil, peanut oil).
Regarding `c1ccc(-n2nc3c(c2OCCN2CCCC2)CCCc2ccccc2-3)cc1`, the T/C (dose: 100.0 mg/kg/injection, schedule: Q01DX009 (ip), vehicle: saline with Tween-80) is 104 % of control.
As to `O/N=C/c1ccc(O)cc1`, the T/C by setting is: under setting [4], 96 % of control; (dose: 100.0 mg/kg/injection, schedule: Q01DX001 (ip), vehicle: saline) 108 % of control; under setting [5], 102 % of control.
`CS(=O)(=O)OCCC(=O)N1CCN(C(=O)CCOS(C)(=O)=O)CC1`: the T/C is, setting by setting: (dose: 6.3 mg/kg/injection, schedule: Q01DX001 (ip), vehicle: carboxymethylcellulose (CMC)) 100 % of control and 105 % of control; (dose: 9.7 mg/kg/injection, schedule: Q01DX Z (ip), vehicle: methylcellulose (MC)) 106 % of control; (dose: 12.5 mg/kg/injection, schedule: Q01DX001 (ip), vehicle: carboxymethylcellulose (CMC)) 103 % of control and 122 % of control; (dose: 14.7 mg/kg/injection, schedule: Q01DX Z (ip), vehicle: methylcellulose (MC)) 104 % of control; (dose: 16.0 mg/kg/injection, schedule: Q01DX002 (ip), vehicle: saline) 115 % of control; (dose: 22.0 mg/kg/injection, schedule: Q01DX Z (ip), vehicle: methylcellulose (MC)) 110 % of control and 112 % of control. The T/C by setting is: (dose: 25.0 mg/kg/injection, schedule: Q01DX001 (ip), vehicle: carboxymethylcellulose (CMC)) 112 % of control and 115 % of control; under setting [2], 108 % of control; (dose: 31.0 mg/kg/injection, schedule: Q01DX002 (ip), vehicle: saline) 105 % of control and 115 % of control; (dose: 31.25 mg/kg/injection, schedule: Q01DX Z (ip), vehicle: methylcellulose (MC)) 156 % of control; (dose: 33.5 mg/kg/injection, schedule: Q01DX Z (ip), vehicle: methylcellulose (MC)) 150 % of control; under setting [4], 121 % of control. Also, the T/C runs as follows: under setting [6], 123 % of control; (dose: 62.5 mg/kg/injection, schedule: Q01DX Z (ip), vehicle: methylcellulose (MC)) 176 % of control; (dose: 75.0 mg/kg/injection, schedule: Q01DX Z (ip), vehicle: methylcellulose (MC)) 162 % of control; (dose: 76.0 mg/kg/injection, schedule: Q01DX Z (ip), vehicle: methylcellulose (MC)) 218 % of control; under setting [7], 153 % of control and 195 % of control; (dose: 170.0 mg/kg/injection, schedule: Q01DX Z (ip), vehicle: methylcellulose (MC)) 103 % of control and 115 % of control. Further, the T/C is 167 % of control under setting [5]; 93 % of control (dose: 225.0 mg/kg/injection, schedule: Q01DX Z (ip), vehicle: methylcellulose (MC)); 205 % of control and 240 % of control (dose: 250.0 mg/kg/injection, schedule: Q01DX002 (ip), vehicle: saline); 213 % of control (dose: 400.0 mg/kg/injection, schedule: Q01DX001 (ip), vehicle: saline).
For the compound `COc1ccc2c3csc4ccccc4c-3nc2c1`, the T/C is, setting by setting: (dose: 12.5 mg/kg/injection, schedule: Q01DX009 (ip), vehicle: saline) 98 % of control; under setting [1], 95 % of control; (dose: 25.0 mg/kg/injection, schedule: Q01DX009 (ip), vehicle: Klucel (hydroxypropylcellulose) (HPC)) 111 % of control; (dose: 25.0 mg/kg/injection, schedule: Q01DX009 (ip), vehicle: saline) 98 % of control; under setting [2], 95 % of control; under setting [3], 100 % of control. Besides, the T/C under setting [6] is 94 % of control.
In the case of `CCOC(=O)NCC(CCN(CC)CC)(c1cccc2ccccc12)C(C)CC` (stereo not given), the T/C reads like this: (dose: 100.0 mg/kg/injection, schedule: Q04DX002 (ip), vehicle: saline) 93 % of control; (dose: 200.0 mg/kg/injection, schedule: Q04DX002 (ip), vehicle: saline) 90 % of control; (dose: 400.0 mg/kg/injection, schedule: Q04DX002 (ip), vehicle: saline) 100 % of control.
As for `CCOC(=O)c1ccc(NC(=S)Nc2ccccc2S)cc1`, the T/C is, setting by setting: (dose: 25.0 mg/kg/injection, schedule: Q04DX002 (ip), vehicle: saline with Tween-80) 101 % of control; (dose: 50.0 mg/kg/injection, schedule: Q04DX002 (ip), vehicle: saline with Tween-80) 101 % of control; (dose: 100.0 mg/kg/injection, schedule: Q04DX002 (ip), vehicle: saline with Tween-80) 93 % of control and 87 % of control.
`C/C=C\C=N\N(C)C`: the T/C by setting is: (dose: 50.0 mg/kg/injection, schedule: Q01DX009 (ip), vehicle: saline) 110 % of control; (dose: 100.0 mg/kg/injection, schedule: Q01DX009 (ip), vehicle: saline) 106 % of control; under setting [7], 102 % of control; (dose: 200.0 mg/kg/injection, schedule: Q04DX003 (ip), vehicle: saline) 97 % of control.
`N#CC1(C#N)C2C=CC(C2)C1(C#N)C#N`: the T/C (dose: 6.25 mg/kg/injection, schedule: Q01DX009 (ip), vehicle: saline with Tween-80) was 97 % of control and the T/C (dose: 12.5 mg/kg/injection, schedule: Q01DX009 (ip), vehicle: saline with Tween-80) is 97 % of control.
